Patent EP0774458A1, “Substituted benzodicarboxylic acid diguanidines, process for their preparation, and their use as medicament or diagnostic agent” (HOECHST AKTIENGESELLSCHAFT, priority 1995, dated 1997)

Target: T1, Na^+/H^+-Exchangers von Kaninchenerythrocyten (Oryctolagus cuniculus, UniProt P23791)
T1 construct: den Na^+-Influx in die Erythrocyten via Na^+/H^+-Austausch flammenphotometrisch bestimmen zu können; from tissue; host or cells: Erythrocytes in whole blood from the ear arteries of cholesterol-fed White New Zealand rabbits (Ivanovas)
Test: Inhibition of the Na+/H+ exchanger of rabbit erythrocytes (amiloride-sensitive sodium influx, flame photometry)
Type: cell-based, Weiße Neuseeland-Kaninchen
Settings: Inhibition des Na^+/H^+-Exchangers, hyperosmolares Salz-Sucrose-Medium, pH 7,4, 37°C
Source text: Inhibition des Na^+/H^+-Exchangers von Kaninchenerythrocyten Weiße Neuseeland-Kaninchen (Ivanovas) erhielten eine Standard-Diät mit 2 % Cholesterin für sechs Wochen, um den Na^+/H^+-Austausch zu aktivieren und so den Na^+-Influx in die Erythrocyten via Na^+/H^+-Austausch flammenphotometrisch bestimmen zu können. Das Blut wurde den Ohrarterien entnommen und durch 25 IE Kalium-Heparin ungerinnbar gemacht. Ein Teil jeder Probe wurde zur Doppelbestimmung des Hämatokrits durch Zentrifugieren benutzt. Aliquots von jeweils 100 µl dienten zur Messung des Na^+-Ausgangsgehalts der Erythrocyten.
Um den Amilorid-sensitiven Natrium-Influx zu bestimmen, wurden 100 µl jeder Blutprobe in jeweils 5 ml eines hyperosmolaren Salz-Sucrose-Mediums (mmol/l: 140 NaCl, 3 KCl, 150 Sucrose, 0,1 Ouabain, 20 Tris-hydroxymethylaminomethan) bei pH 7,4 und 37°C inkubiert. Die Erythrocyten wurden danach dreimal mit eiskalter MgCl2-Ouabain-Lösung (mmol/l: 112 MgCl2, 0,1 Ouabain) gewaschen und in 2,0 ml destilliertem Wasser hämolysiert. Der intrazelluläre Natriumgehalt wurde flammenphotometrisch bestimmt.
Der Na^+-Nettoinflux wurde aus der Differenz zwischen Natrium-Ausgangswerten und dem Natriumgehalt der Erythrocyten nach Inkubation errechnet. Der Amilorid-hemmbare Natrium-Influx ergab sich aus der Differenz des Natriumgehalts der Erythrocyten nach Inkubation mit und ohne Amilorid 3 x 10-4 mol/l. […]

T1 sequence (P23791 whole entry): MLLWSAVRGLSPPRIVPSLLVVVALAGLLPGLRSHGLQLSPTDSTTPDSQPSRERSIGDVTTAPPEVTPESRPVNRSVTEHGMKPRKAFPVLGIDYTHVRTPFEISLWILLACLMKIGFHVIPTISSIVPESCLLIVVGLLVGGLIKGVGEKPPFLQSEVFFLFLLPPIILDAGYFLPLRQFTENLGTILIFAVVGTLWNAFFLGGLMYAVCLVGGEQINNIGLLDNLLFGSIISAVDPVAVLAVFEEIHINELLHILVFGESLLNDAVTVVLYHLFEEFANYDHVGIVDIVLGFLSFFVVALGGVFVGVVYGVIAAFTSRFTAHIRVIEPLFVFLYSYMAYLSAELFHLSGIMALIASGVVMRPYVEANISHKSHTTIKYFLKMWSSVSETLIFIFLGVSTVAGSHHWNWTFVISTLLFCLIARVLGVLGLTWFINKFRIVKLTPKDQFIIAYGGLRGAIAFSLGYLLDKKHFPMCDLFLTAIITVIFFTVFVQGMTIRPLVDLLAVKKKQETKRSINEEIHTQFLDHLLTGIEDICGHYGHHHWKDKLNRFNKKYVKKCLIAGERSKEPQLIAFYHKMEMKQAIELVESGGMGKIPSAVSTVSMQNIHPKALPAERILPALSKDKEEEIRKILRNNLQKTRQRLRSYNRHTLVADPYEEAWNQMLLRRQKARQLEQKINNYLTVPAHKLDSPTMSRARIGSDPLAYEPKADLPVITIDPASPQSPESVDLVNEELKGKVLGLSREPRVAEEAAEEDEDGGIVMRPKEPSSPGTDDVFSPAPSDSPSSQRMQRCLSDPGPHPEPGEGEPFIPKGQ

IC50: 900 µM
SMILES: NC(N)=NC(=O)c1cc(C(=O)N=C(N)N)c(Cl)c(-c2ccccc2)c1 [Beispiel 1, 4-Chlor-5-phenyl-isophthalsäure-diguanidid]
